The assay addresses T1, N-terminal His6-tagged recombinant full-length human Lck (Homo sapiens, UniProt P06239).
T1 construct: N-terminal His6-tagged recombinant full-length human Lck; His6 (N); purchased Millipore
The assay can be described thus: Lck IMAP assay. The note with it: ATP 6 μM (KM,ATP), enzyme pre-incubated with compounds for 60 minutes, values given as bins. Format: biochemical. An excerpt: Inhibition of kinase activity can be measured using the Immobilized Metal Assay for Phosphochemicals (IMAP) assay. IMAP is a homogeneous fluorescence polarization (FP) assay based on affinity capture of phosphorylated peptide substrates. IMAP uses fluorescein-labeled peptide substrates that, upon phosphorylation by a protein kinase, bind to so-called IMAP nanoparticles, which are derivatized with trivalent metal complexes. Binding causes a change in the rate of the molecular motion of the peptide, and results in an increase in the FP value observed for the fluorescein label attached to the substrate peptide (Gaudet et al. A homogeneous fluorescence polarization assay adaptable for a range of protein serine/threonine and tyrosine kinases. J. Biomol. Screen (2003) 8, 164-175).
Enzyme used was N-terminal His6-tagged recombinant full-length human Lck from Millipore. Phosphorylation substrate was a fluorescein-labeled peptide (5FAM-KVEKIGEGTYGVV—NH2) derived from p34cdc2 from Molecular Devices. Enzymes, substrate and ATP were diluted in Kinase Reaction buffer (10 mM Tris-HCl, 10 mM MgCl2, 0.01% Tween-20, 0.05% NaN3 pH 7.2, 1 mM DTT (dithiotreitol). The final volume at the kinase reaction step of the assay in the 384-well plate was 20 μl. Final amount of enzyme in the reaction was 0.1 U/ml. Enzyme was pre-incubated with compounds diluted in 1% DMSO (dimethylsulfoxide) for 60 minutes at room temperature in the dark. Subsequently, peptide substrate to a final concentration of 100 nM, and ATP to a final concentration of 6 μM were added and the mix was incubated for 120 minutes at room temperature in the dark. IMAP progressive binding buffer (75% 1× buffer A, 25% 1× buffer B with 1:600 Progressive Binding Reagent; Molecular Devices) was added, followed by an incubation step of 60 minutes at room temperature in the dark. Finally, the FP signal was read on an Envision Multilabel reader (Perkin Elmer).
All biochemical assays were run at KM,ATP of the enzyme using non-saturated conditions, meaning that during the incubation time it was assured that the signal increase was linear with time. For all biochemical assays a reference standard was used on each plate.
Ten point serial dilutions using a √10 dilution factor were used for dose response testing of compounds. Starting concentration was 10^-6M for Lck IMAP assays. Dose-response curves were run as two experiments on duplicate plates (N=1; n=2). All data was normalized to percentage effect based on maximum (Max) and minimum (Min) control values. On every 384 assay plate 16 wells were used as minimum wells (wells with ATP, 0% effect) and 16 wells were used as maximum wells (wells without ATP, 100% effect). 16 wells were used for measuring the background signal, obtained from a kinase reaction containing all constituents except the labeled peptide substrate. Percentage effect was plotted against log dilution concentration of compound to obtain sigmoid dose response curves. pIC50 values were calculated using ActivityBase.
T1 sequence (P06239 whole entry): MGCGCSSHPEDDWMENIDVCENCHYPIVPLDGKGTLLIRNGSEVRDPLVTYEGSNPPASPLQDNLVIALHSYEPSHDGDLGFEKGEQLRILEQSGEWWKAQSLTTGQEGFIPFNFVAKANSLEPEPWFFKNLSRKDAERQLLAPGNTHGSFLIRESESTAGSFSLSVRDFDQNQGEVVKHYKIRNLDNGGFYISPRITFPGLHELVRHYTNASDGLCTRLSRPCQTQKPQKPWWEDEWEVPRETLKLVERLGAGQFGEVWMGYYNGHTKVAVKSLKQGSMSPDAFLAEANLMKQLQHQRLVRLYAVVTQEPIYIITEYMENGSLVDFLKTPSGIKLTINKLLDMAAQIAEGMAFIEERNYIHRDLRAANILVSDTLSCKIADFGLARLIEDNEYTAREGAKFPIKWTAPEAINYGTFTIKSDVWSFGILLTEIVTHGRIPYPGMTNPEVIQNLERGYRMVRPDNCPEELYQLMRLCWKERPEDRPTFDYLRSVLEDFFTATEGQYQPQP
Consider `COc1cc(-c2nc(N3CCN(C(C)=O)CC3)n3ccnc(C)c23)ccc1NC(=O)c1cc2c(OC)cccc2n1C` [Example 33g, N-(4-(3-(4-acetylpiperazin-1-yl)-8-methylimidazo[1,5-a]pyrazin-1-yl)-2-methoxyphenyl)-4-methoxy-1-methyl-1H-indole-2-carboxamide], for which the half-maximal inhibitory concentration (IC50) (commonly the concentration that inhibits the measured activity by half) was 0.01 to 0.1 µM. The result for `COc1cc(-c2nc(N3CCN(C4CCOCC4)CC3)n3ccnc(C)c23)ccc1NC(=O)c1cc2c(OC)cccc2n1C` [Example 34, 4-Methoxy-N-(2-methoxy-4-(8-methyl-3-(4-(tetrahydro-2H-pyran-4-yl)piperazin-1-yl)imidazo[1,5-a]pyrazin-1-yl)phenyl)-1-methyl-1H-indole-2-carboxamide] reads no more than 0.01 µM; that for `COc1cc(-c2nc([C@@H]3CCN(C4CCOCC4)C3)n3ccnc(C)c23)ccc1NC(=O)c1cc2c(OC)cccc2n1C` [Example 35, (R)-4-methoxy-N-(2-methoxy-4-(8-methyl-3-(1-(tetrahydro-2H-pyran-4-yl)pyrrolidin-3-yl)imidazo[1,5-a]pyrazin-1-yl)phenyl)-1-methyl-1H-indole-2-carboxamide], 0.01 to 0.1 µM. Regarding `COc1cc(-c2nc([C@H]3CCN(C4CCOCC4)C3)n3ccnc(C)c23)ccc1NC(=O)c1cc2c(OC)cccc2n1C` [Example 36, (S)-4-Methoxy-N-(2-methoxy-4-(8-methyl-3-(1-(tetrahydro-2H-pyran-4-yl)pyrrolidin-3-yl)imidazo[1,5-a]pyrazin-1-yl)phenyl)-1-methyl-1H-indole-2-carboxamide], the IC50 was 0.01 to 0.1 µM. Then `COc1cc(-c2nc(N3CCn4c(nnc4C(F)(F)F)C3)n3ccnc(C)c23)ccc1NC(=O)c1cc2c(OC)cccc2n1C` [Example 37, 4-Methoxy-N-(2-methoxy-4-(8-methyl-3-(3-(trifluoromethyl)-5,6-dihydro-[1,2,4]triazolo[4,3-a]pyrazin-7(8H)-yl)imidazo[1,5-a]pyrazin-1-yl)phenyl)-1-methyl-1H-indole-2-carboxamide], with 0.01 to 0.1 µM; and `COc1cc(-c2nc(C3CCN(C)C(=O)C3)n3ccnc(C)c23)ccc1NC(=O)c1cc2c(OC)cccc2n1C` (stereo not shown) [Example 38, 4-Methoxy-N-(2-methoxy-4-(8-methyl-3-(1-methyl-2-oxopiperidin-4-yl)imidazo[1,5-a]pyrazin-1-yl)phenyl)-1-methyl-1H-indole-2-carboxamide], with no more than 0.01 µM. Then `COc1cc(-c2nc([C@H]3CC[C@H](N)CC3)n3ccnc(C)c23)ccc1NC(=O)c1cc2c(OC)cccc2n1C` [Example 39, N-(4-(3-((trans)-4-aminocyclohexyl)-8-methylimidazo[1,5-a]pyrazin-1-yl)-2-methoxyphenyl)-4-methoxy-1-methyl-1H-indole-2-carboxamide], with no more than 0.01 µM. Turning to `COc1cc(-c2nc([C@H]3CC[C@H](NCC(F)F)CC3)n3ccnc(C)c23)ccc1NC(=O)c1cc2c(OC)cccc2n1C` [Example 40, N-(4-(3-((trans)-4-(2,2-Difluoroethylamino)cyclohexyl)-8-methylimidazo[1,5-a]pyrazin-1-yl)-2-methoxyphenyl)-4-methoxy-1-methyl-1H-indole-2-carboxamide], the IC50 is no more than 0.01 µM. On to `COc1cc(-c2nc([C@H]3CC[C@H](N4CC(F)(F)C4)CC3)n3ccnc(C)c23)ccc1N(C)C(=O)OC(C)C` [Example 41, Isopropyl 4-(3-((trans)-4-(3,3-difluoroazetidin-1-yl)cyclohexyl)-8-methylimidazo[1,5-a]pyrazin-1-yl)-2-methoxyphenyl(methyl)carbamate], for which the half-inhibitory concentration (IC50) was 0.1 to 1 µM. Consider `COc1ccc2[nH]c(C(=O)Nc3ccc(-c4nc(C5CCOCC5)n5ccnc(C)c45)cc3OC)cc2n1` [Example 42, 5-methoxy-N-(2-methoxy-4-(8-methyl-3-(tetrahydro-2H-pyran-4-yl)imidazo[1,5-a]pyrazin-1-yl)phenyl)-1H-pyrrolo[3,2-b]pyridine-2-carboxamide], for which the IC50 is 0.01 to 0.1 µM. The result for `COc1cc(-c2nc(C3CCN(C)CC3)n3ccnc(C)c23)ccc1NC(=O)c1cc2ccccc2n1C` [Example 43, N-(2-methoxy-4-(8-methyl-3-(1-methylpiperidin-4-yl)imidazo[1,5-a]pyrazin-1-yl)phenyl)-1-methyl-1H-indole-2-carboxamide] reads no more than 0.01 µM; that for `COc1cc(-c2nc(C3CCOCC3)n3ccnc(C)c23)ccc1NC(=O)O[C@@H](C)CCO` [Example 44, (S)-4-hydroxybutan-2-yl 2-methoxy-4-(8-methyl-3-(tetrahydro-2H-pyran-4-yl)imidazo[1,5-a]pyrazin-1-yl)phenylcarbamate], 0.01 to 0.1 µM. The result for `COc1cc(-c2nc(C3CCN(C)CC3)n3ccnc(C)c23)ccc1NC(=O)c1cc2c(F)cccc2n1C` [Example 45, 4-fluoro-N-(2-methoxy-4-(8-methyl-3-(1-methylpiperidin-4-yl)imidazo[1,5-a]pyrazin-1-yl)phenyl)-1-methyl-1H-indole-2-carboxamide] reads 0.01 to 0.1 µM.

As for `COc1cc(-c2nc(C3CCOCC3)n3ccnc(C)c23)c(F)cc1NC(=O)c1cc2c(OC)cccc2n1C` [Example 46, N-(5-fluoro-2-methoxy-4-(8-methyl-3-(tetrahydro-2H-pyran-4-yl)imidazo[1,5-a]pyrazin-1-yl)phenyl)-4-methoxy-1-methyl-1H-indole-2-carboxamide], the IC50 is no more than 0.01 µM.

For `COc1cc(-c2nc(C3CCOCC3)n3ccnc(C)c23)c(F)cc1NC(=O)OC(C)CCCO` (stereo not shown) [Example 47, 5-Hydroxypentan-2-yl 5-fluoro-2-methoxy-4-(8-methyl-3-(tetrahydro-2h-pyran-4-yl)imidazo[1,5-a]pyrazin-1-yl)phenylcarbamate], the IC50 was 0.1 to 1 µM. Take `CC[C@H](C)OC(=O)Nc1ccc(-c2nc([C@H]3CC[C@H](N4CCN(C)CC4)CC3)n3ccnc(C)c23)cc1OC` [Example 48, (S)-sec-Butyl 2-methoxy-4-(8-methyl-3-((trans)-4-(4-methylpiperazin-1-yl)cyclohexyl)imidazo[1,5-a]pyrazin-1-yl)phenylcarbamate]: the IC50 is no more than 0.01 µM.

Take `COc1cc(-c2nc(C3CCN(C4CCN(C(C)=O)CC4)CC3)n3ccnc(C)c23)ccc1NC(=O)c1cc2c(OC)cccc2n1C` [Example 49, N-(4-(3-(1′-acetyl-1,4′-bipiperidin-4-yl)-8-methylimidazo[1,5-a]pyrazin-1-yl)-2-methoxyphenyl)-4-methoxy-1-methyl-1H-indole-2-carboxamide]: the 50% inhibitory concentration (IC50) was no more than 0.01 µM. The result for `CCC[C@H](C)OC(=O)Nc1ccc(-c2nc([C@H]3CCN(C(=O)COC)C3)n3ccnc(C)c23)cc1OC` [Example 50, (S)-pentan-2-yl 2-methoxy-4-(3-((S)-1-(2-methoxyacetyl)pyrrolidin-3-yl)-8-methylimidazo[1,5-a]pyrazin-1-yl)phenylcarbamate] reads no more than 0.01 µM. As to `COc1cc(-c2nc([C@H]3CC[C@H](OC(=O)NC4CCCC4)CC3)n3ccnc(C)c23)ccc1NC(=O)c1cc2c(OC)cccc2n1C` [Example 51, (trans)-4-(1-(3-Methoxy-4-(4-methoxy-1-methyl-1H-indole-2-carboxamido)phenyl)-8-methylimidazo[1,5-a]pyrazin-3-yl)cyclohexyl cyclopentylcarbamate], the IC50 was 0.01 to 0.1 µM. The result for `COc1cc(-c2nc([C@@H]3CCN(CC(=O)N(C)C)C3)n3ccnc(C)c23)ccc1NC(=O)c1cc2c(OC)cccc2n1C` [Example 52, (R)—N-(4-(3-(1-(2-(dimethylamino)-2-oxoethyl)pyrrolidin-3-yl)-8-methylimidazo[1,5-a]pyrazin-1-yl)-2-methoxyphenyl)-4-methoxy-1-methyl-1H-indole-2-carboxamide] reads 0.01 to 0.1 µM; that for `COc1cc(-c2nc([C@@H]3CCN(C(=O)CO)C3)n3ccnc(C)c23)ccc1NC(=O)c1cc2c(OC)cccc2n1C` [Example 53, (R)—N-(4-(3-(1-(2-hydroxyacetyl)pyrrolidin-3-yl)-8-methylimidazo[1,5-a]pyrazin-1-yl)-2-methoxyphenyl)-4-methoxy-1-methyl-1H-indole-2-carboxamide], no more than 0.01 µM. The result for `COc1cc(-c2nc([C@H]3CC[C@H](N4CCNCC4)CC3)n3ccnc(C)c23)ccc1NC(=O)c1cc2c(OC)cccc2n1C` [Example 54, 4-Methoxy-N-(2-methoxy-4-(8-methyl-3-((trans)-4-(piperazin-1-yl)cyclohexyl)imidazo[1,5-a]pyrazin-1-yl)phenyl)-1-methyl-1H-indole-2-carboxamide] reads no more than 0.01 µM.

(Values after US8658794B2, “8-methyl-1-phenyl-imidazol[1,5-a]pyrazine compounds as Lck inhibitors and uses thereof” (Merck Sharp & Dohme B.V., priority 2010, dated 2014).)
